Values quoted from earlier work in patent publication US20240173338A1, “PREPARATION AND ACTIVITY CHARACTERIZATION OF CANNABICITRAN ENANTIOMERS” (University of North Carolina at Wilmington, priority 2022, published 2024).

Columns and labels:
[1] = target: T1, 5-HT1A (Homo sapiens, UniProt P08908)
T1 sequence (P08908 1-422): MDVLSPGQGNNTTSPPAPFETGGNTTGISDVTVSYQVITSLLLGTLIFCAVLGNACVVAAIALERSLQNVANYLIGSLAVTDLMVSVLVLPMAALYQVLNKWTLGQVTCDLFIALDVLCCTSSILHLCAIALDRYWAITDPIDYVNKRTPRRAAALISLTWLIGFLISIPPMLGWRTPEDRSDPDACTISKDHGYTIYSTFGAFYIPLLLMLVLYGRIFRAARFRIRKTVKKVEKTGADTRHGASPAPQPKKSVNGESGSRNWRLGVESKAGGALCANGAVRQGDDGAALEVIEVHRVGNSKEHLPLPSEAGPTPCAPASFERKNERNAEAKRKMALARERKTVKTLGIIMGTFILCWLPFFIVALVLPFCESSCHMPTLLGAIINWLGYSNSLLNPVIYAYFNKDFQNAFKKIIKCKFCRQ

[2] = system: multiple TRPs
[3] = target: GPR55 (Homo sapiens, UniProt Q9Y2T6)
Chain of GPR55 (Q9Y2T6 whole entry, species assumed): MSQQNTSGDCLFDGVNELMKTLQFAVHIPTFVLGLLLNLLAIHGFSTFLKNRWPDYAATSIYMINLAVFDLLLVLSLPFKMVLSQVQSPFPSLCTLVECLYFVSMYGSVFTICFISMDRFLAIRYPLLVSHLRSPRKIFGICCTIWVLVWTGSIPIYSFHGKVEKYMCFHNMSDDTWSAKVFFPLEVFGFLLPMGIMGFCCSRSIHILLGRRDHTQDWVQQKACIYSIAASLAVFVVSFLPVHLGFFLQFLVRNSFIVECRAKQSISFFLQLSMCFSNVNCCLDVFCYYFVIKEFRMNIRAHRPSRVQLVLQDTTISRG

[4] = rabbits
[5] = target: CB1 (Homo sapiens, UniProt P21554)
Chain of CB1 (P21554 whole entry, species assumed): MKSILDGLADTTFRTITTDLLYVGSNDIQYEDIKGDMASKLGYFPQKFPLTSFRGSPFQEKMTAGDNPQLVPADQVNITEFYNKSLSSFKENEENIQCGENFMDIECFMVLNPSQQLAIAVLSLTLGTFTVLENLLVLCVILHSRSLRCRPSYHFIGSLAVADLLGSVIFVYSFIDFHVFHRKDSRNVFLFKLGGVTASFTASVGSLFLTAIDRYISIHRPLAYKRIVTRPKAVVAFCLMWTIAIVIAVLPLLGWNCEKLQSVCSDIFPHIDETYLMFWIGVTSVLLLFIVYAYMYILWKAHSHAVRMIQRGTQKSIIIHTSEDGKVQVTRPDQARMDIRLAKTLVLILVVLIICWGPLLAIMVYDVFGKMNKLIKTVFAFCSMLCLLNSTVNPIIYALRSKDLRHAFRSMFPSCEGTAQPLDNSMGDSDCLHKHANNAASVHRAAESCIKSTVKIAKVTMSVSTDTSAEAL

[6] = target: CB2 (Homo sapiens, UniProt P34972)
Chain of CB2 (P34972 whole entry, species assumed): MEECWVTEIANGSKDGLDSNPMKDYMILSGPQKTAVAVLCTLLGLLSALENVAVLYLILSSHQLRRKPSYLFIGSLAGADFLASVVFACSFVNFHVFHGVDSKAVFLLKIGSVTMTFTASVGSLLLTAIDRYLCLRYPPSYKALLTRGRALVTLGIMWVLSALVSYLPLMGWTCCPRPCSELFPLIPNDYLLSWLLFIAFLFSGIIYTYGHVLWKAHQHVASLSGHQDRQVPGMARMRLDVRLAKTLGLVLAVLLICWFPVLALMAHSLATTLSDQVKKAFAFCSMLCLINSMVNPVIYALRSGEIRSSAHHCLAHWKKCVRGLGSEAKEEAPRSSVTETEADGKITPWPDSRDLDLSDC

## trans-CBD [(−)-2]
[1]
  binding to 5-HT1A: known to bind
[2]
  binding to multiple TRPs: known to bind
[3]
  binding to GPR55: known to bind

## CCCCCc1cc2c3c(c1)O[C@]1(C)CC[C@@H]([C@H]3C1)C(C)(C)O2 [CBT-C (3), cannabicitran]
[4]
  effect on intraocular pressure: reduces intraocular pressure

## trans-CBD [(+)-2]
[5]
  binding to CB1: bind strongly
[6]
  binding to CB2: bind strongly
